This is an account of results in ChEMBL document CHEMBL3875145, “Highly potent anti-leishmanial derivatives of hederagenin, a triperpenoid from Sapindus saponaria L” (Eur J Med Chem, 2016).

What is called IC50 is the concentration needed to halve the response being measured. As a reminder, the inhibition is the drop in the measured response relative to a control, in per cent.

For data set [1], the system named is Leishmania infantum. The data set is described as follows: Antiparasitic activity against Leishmania infantum MHOM/BR/70/BH46 promastigotes infected in dog DH82 cells after 48 hrs by ELISA method. The conditions noted are these: MHOM/BR/70/BH46, DH82, 48 h. The class given is functional, cell-based. (An ELISA detects its analyte on a solid surface through an enzyme-linked reagent.)

A short description of data set [2]: Cytotoxicity against dog DH82 cells assessed as decrease in cell viability after 48 hrs by MTT assay. The data set is classed as toxicity, cell-based, Canis lupus familiaris. The conditions noted are these: read-out: LD50. (In general: Formazan colour is commonly taken as a measure of viable cells.)
Data set [3] is described as follows: Selectivity index, ratio of LD50 for dog DH82 cells to IC50 for Leishmania infantum MHOM/BR/70/BH46 promastigotes infected in dog DH82 cells. The data set is classed as toxicity, cell-based. Conditions: read-out: Ratio LD50/IC50.
Data set [4] has as its system Leishmania infantum. The data set is described as follows: Antiparasitic activity against Leishmania infantum MHOM/BR/70/BH46 promastigotes infected in dog DH82 cells at 1000 uM after 48 hrs by ELISA method. Conditions: MHOM/BR/70/BH46, DH82, 48 h. The class given is functional.
Data set [5] can be described thus: Selectivity index, ratio of LD50 for African green monkey BGM cells to IC50 for Leishmania infantum MHOM/BR/70/BH46 promastigotes infected in dog DH82 cells. The class given is toxicity, cell-based. Conditions: read-out: Ratio LD50/IC50.
Data set [6] in a line: Selectivity index, ratio of LD50 for human HepG2 cells to IC50 for Leishmania infantum MHOM/BR/70/BH46 promastigotes infected in dog DH82 cells. Conditions: read-out: Ratio LD50/IC50. The class given is toxicity, cell-based.
Data set [7] can be described thus: Cytotoxicity against human HepG2 cells assessed as decrease in cell viability after 48 hrs by MTT assay. The data set is classed as toxicity, cell-based. The conditions noted are these: read-out: LD50.
A short description of data set [8]: Cytotoxicity against African green monkey BGM cells assessed as decrease in cell viability after 48 hrs by MTT assay. Conditions: chlorocebus aethiops, read-out: LD50. The data set is classed as toxicity, cell-based.

Take `CC1(C)CC[C@]2(C(=O)OCc3c(Cl)cccc3Cl)CC[C@]3(C)C(=CC[C@@H]4[C@@]5(C)CC[C@H](O)[C@@](C)(CO)[C@@H]5CC[C@]43C)[C@@H]2C1`: half-maximal inhibition with Leishmania infantum [1] (IC50) was put at 307 µM. In addition, the CC50 at 48 h in data set [2] was determined as 202 µM. In addition, the selectivity ratio in data set [3] stood at 0.6. In addition, 1000 µM produced 53% inhibition with Leishmania infantum [4].
Molecule `Cc1cccc(COC(=O)[C@]23CCC(C)(C)C[C@H]2C2=CC[C@@H]4[C@@]5(C)CC[C@H](O)[C@@](C)(CO)[C@@H]5CC[C@@]4(C)[C@]2(C)CC3)c1` returned an inhibition at 1000 µM with Leishmania infantum [4] of 66%.
In the data set on Leishmania infantum [1], `CC1(C)CC[C@]2(C(=O)OCc3cccc([N+](=O)[O-])c3)CC[C@]3(C)C(=CC[C@@H]4[C@@]5(C)CC[C@H](O)[C@@](C)(CO)[C@@H]5CC[C@]43C)[C@@H]2C1` gave an IC50 of 9.7 µM. The CC50 at 48 h came out at 63 µM in data set [2], 70 µM in data set [7] and 314 µM in data set [8]. Besides, the values for the selectivity ratio in data set [3], in data set [5] and in data set [6] were 6.4, 32 and 5.2, respectively. In the data set with Leishmania infantum [4], the inhibition at 1000 µM is 60.5%.
`COc1cc(COC(=O)[C@]23CCC(C)(C)C[C@H]2C2=CC[C@@H]4[C@@]5(C)CC[C@H](O)[C@@](C)(CO)[C@@H]5CC[C@@]4(C)[C@]2(C)CC3)cc(OC)c1` had an IC50 with Leishmania infantum [1] of 110 µM. The same molecule showed an inhibition at 1000 µM with Leishmania infantum [4] of 89%.
In the case of `CC1(C)CC[C@]2(C(=O)OCc3ccc(Br)cc3)CC[C@]3(C)C(=CC[C@@H]4[C@@]5(C)CC[C@H](O)[C@@](C)(CO)[C@@H]5CC[C@]43C)[C@@H]2C1`, in the data set with Leishmania infantum [1], the IC50 was 12 µM. The CC50 at 48 h in data set [2] was 83 µM; in data set [7], 260 µM; in data set [8], 116 µM. For the same molecule, the selectivity ratio in data set [3] came out at 6.9; in data set [5], 10; in data set [6], 21.6. This molecule returned an inhibition at 1000 µM in the data set on Leishmania infantum [4] of 64.5%.
The molecule `CC1(C)CC[C@]2(C(=O)OCc3cn(Cc4cccc(Br)c4)nn3)CC[C@]3(C)C(=CC[C@@H]4[C@@]5(C)CC[C@H](O)[C@@](C)(CO)[C@@H]5CC[C@]43C)[C@@H]2C1` showed an IC50 with Leishmania infantum [1] of 38 µM. For the same molecule, the CC50 at 48 h in data set [2] was 21 µM; in data set [7] it was 19 µM; in data set [8], 78 µM. Moreover, the selectivity ratio in data set [3] is 0.5; in data set [5], 2; in data set [6] it was 0.5. For the same molecule, the inhibition at 1000 µM with Leishmania infantum [4] was found to be 70.5%.
Take `CC1(C)CC[C@]2(C(=O)OCc3cn(Cc4ccc(F)cc4F)nn3)CC[C@]3(C)C(=CC[C@@H]4[C@@]5(C)CC[C@H](O)[C@@](C)(CO)[C@@H]5CC[C@]43C)[C@@H]2C1`: in the data set on Leishmania infantum [1], the IC50 came out at 11 µM. Moreover, the CC50 at 48 h in data set [2] was 66 µM; in data set [7] it was over 1000 µM; in data set [8] it was 158 µM. Moreover, the values for the selectivity ratio in data set [3], in data set [5] and in data set [6] were 6, 4.9 and over 31.2, respectively. Further, the inhibition at 1000 µM with Leishmania infantum [4] stood at 87.7%.
In turn, `CC1(C)CC[C@]2(C(=O)NCc3cn(Cc4ccc(Cl)cc4)nn3)CC[C@]3(C)C(=CC[C@@H]4[C@@]5(C)CC[C@H](O)[C@@](C)(CO)[C@@H]5CC[C@]43C)[C@@H]2C1` had an IC50 in the data set with Leishmania infantum [1] of 6 µM. Besides, the CC50 at 48 h turned out to be 16 µM in data set [2], 2.5 µM in data set [7] and 50 µM in data set [8]. In addition, the selectivity ratio in data set [3] was 2.6; in data set [5], 8.3; in data set [6], 0.4. In the data set with Leishmania infantum [4], this molecule yielded an inhibition at 1000 µM of 85.4%.
`CC1(C)CC[C@]2(C(=O)NCc3cn(Cc4c(Cl)cccc4Cl)nn3)CC[C@]3(C)C(=CC[C@@H]4[C@@]5(C)CC[C@H](O)[C@@](C)(CO)[C@@H]5CC[C@]43C)[C@@H]2C1`: the inhibition at 1000 µM in the data set on Leishmania infantum [4] was found to be 41.7%.
Same read-out and setting: as for `CC1(C)CC[C@]2(C(=O)NCc3cn(Cc4ccc(F)cc4F)nn3)CC[C@]3(C)C(=CC[C@@H]4[C@@]5(C)CC[C@H](O)[C@@](C)(CO)[C@@H]5CC[C@]43C)[C@@H]2C1`, the figure is 41.8%.
As for `CC1(C)CC[C@]2(C(=O)NCc3cn(Cc4ccccc4[N+](=O)[O-])nn3)CC[C@]3(C)C(=CC[C@@H]4[C@@]5(C)CC[C@H](O)[C@@](C)(CO)[C@@H]5CC[C@]43C)[C@@H]2C1`, half-maximal inhibition in the data set on Leishmania infantum [1] (IC50) was put at 2 µM. The CC50 at 48 h in data set [2] is 45 µM; in data set [7], over 1000 µM; in data set [8], 111 µM. Moreover, the selectivity ratio was 22.5 in data set [3], 55.5 in data set [5] and over 500 in data set [6]. Moreover, the inhibition at 1000 µM in the data set with Leishmania infantum [4] was 93%.
In the data set with Leishmania infantum [4], `CC1(C)CC[C@]2(C(=O)NCc3cn(Cc4c(F)cccc4F)nn3)CC[C@]3(C)C(=CC[C@@H]4[C@@]5(C)CC[C@H](O)[C@@](C)(CO)[C@@H]5CC[C@]43C)[C@@H]2C1` registered an inhibition at 1000 µM of 45%.
In the data set with Leishmania infantum [1], `CC1(C)CC[C@]2(C(=O)OCc3cn(Cc4ccccc4[N+](=O)[O-])nn3)CC[C@]3(C)C(=CC[C@@H]4[C@@]5(C)CC[C@H](O)[C@@](C)(CO)[C@@H]5CC[C@]43C)[C@@H]2C1` gave an IC50 of 32 µM. The CC50 at 48 h in data set [2] is 212 µM; in data set [7] it was 57 µM; in data set [8], 15 µM. The selectivity ratio was determined as 6.6 in data set [3], 1.3 in data set [5] and 5.1 in data set [6]. In the data set with Leishmania infantum [4], this molecule displayed an inhibition at 1000 µM of 51%.
As to `COC(=O)CNC(=O)[C@]12CCC(C)(C)C[C@H]1C1=CC[C@@H]3[C@@]4(C)CC[C@H](O)[C@@](C)(CO)[C@@H]4CC[C@@]3(C)[C@]1(C)CC2`, the IC50 in the data set on Leishmania infantum [1] is 18 µM. Also, the CC50 at 48 h amounted to 32.5 µM in data set [2], 60.6 µM in data set [7] and 20 µM in data set [8]. Moreover, the selectivity ratio in data set [3] was 1.8; in data set [5], 1; in data set [6], 3.5. The molecule further returned an inhibition at 1000 µM in the data set on Leishmania infantum [4] of 79.5%.
Molecule `CC1(C)CC[C@]2(C(=O)O)CC[C@]3(C)C(=CC[C@@H]4[C@@]5(C)CC[C@H](O)[C@@](C)(CO)[C@@H]5CC[C@]43C)[C@@H]2C1` [HEDERAGENIN] displayed an IC50 in the data set on Leishmania infantum [1] of 61.6 µM. The CC50 at 48 h in data set [2] is under 1000 µM; in data set [7] it was under 1000 µM; in data set [8], 57 µM. Moreover, the values for the selectivity ratio in data set [3], in data set [5] and in data set [6] were 10, 0.9 and 16.2, respectively. This molecule also displayed an inhibition at 1000 µM with Leishmania infantum [4] of 55.5%.
